The text below walks through data of patent US20220048893A1, “Compounds for Treating Neurodegenerative Diseases and Cancers” (Hongyi & Associates LLC, priority 2019, published 2022).

The data set can be described thus: In vivo PK study, oral, plasma and brain. Also on record: species or system Sprague Dawley rats; AUC(0-t) / AUC(0-inf): concentration or dose not given beside the values. The conditions noted are these: for brain permeability compared to Nilotinib and Imatinib: in vivo PK studies; for Kp / AUC(0-inf) / AUC(0-t) / Cmax / Tmax / half-life: rat, oral, Sprague Dawley rats; for Kp: brain and plasma, read-out: AUC(0-t) Brain/ AUC(0-t) plasma. The procedure:
In the PK profiling study, Compounds 1 and 2 were administered orally to three Sprague Dawley rats. The animals were fasted overnight before drug administration. The food supply were resumed 4 hrs post dose. Blood samples were collected at 8 time points after dose: 0.25 h, 0.5 h, 1 h, 2 h, 4 h, 6 h, 8 h and 24 h. There are three samples for each time point. Brain tissues were collected after 24 hour blood sample collection. Drug concentrations in blood and brain were analyzed by LC-MS/MS. The analytical results were confirmed using quality control samples for intra-assay variation. The accuracy of >66.7% of the quality control samples should be between 80-120% of the known values. Standard set of parameters including area under the curve (AUC(0-t) and AUC(0-∞)), elimination half-life (T1/2), maximum plasma concentration (Cmax), time to reach maximum plasma concentration (Tmax) were calculated using noncompartmental analysis modules in FDA certified pharmacokinetic program Phoenix WinNonlin 7.0 (Pharsight, USA). The ratio of brain to plasma concentration were calculated by the concentration in brain tissue versus the concentration in plasma.

On to `Cc1ccc(C(=O)Nc2ccc(CC(C)N(C)C)cc2)cc1Nc1ccnc(-c2cccnc2)n1` (stereo not drawn) [Compound 1, N-(4-(2-(dimethylamino)propyl)phenyl)-4-methyl-3-((2-(pyridin-3-yl)pyrimidin-4-yl)amino)benzamide], for which the “brain permeability compared to Nilotinib and Imatinib” value is reported as “much improved brain permeability”; the Kp worked out at 0.121. Where the note is “Brain”, the total exposure AUC(0-inf) is 8740 ng·h/mL, the AUC(0-t) is 7720 ng·h/mL, the Cmax was determined as 557 ng/mL and the Tmax worked out at 6 h. Besides, the half-life (Brain) is 7.1 h. Besides, for the setting “Plasma”, the AUC(0-inf) was found to be 65400 ng·h/mL, the AUC(0-t) is 64000 ng·h/mL, the Cmax was 6680 ng/mL and the Tmax turned out to be 4 h. The half-life (Plasma) was 3.98 h.
As to `Cc1ccc(C(=O)Nc2ccc(C3CCN(C)CC3)cc2)cc1Nc1ccnc(-c2cccnc2)n1` [Compound 2, 4-methyl-N-(4-(1-methylpiperidin-4-yl)phenyl)-3-((2-(pyridin-3-yl)pyrimidin-4-yl)amino)benzamide], the “brain permeability compared to Nilotinib and Imatinib” value is listed as “much improved brain permeability”; the Kp is 0.142. In addition, for the setting “Brain”, the AUC(0-inf) turned out to be 25600 ng·h/mL, the AUC(0-t) amounted to 13100 ng·h/mL, the Cmax was determined as 796 ng/mL and the time of peak concentration (Tmax) was 6 h. Where the note is “Brain”, this molecule gave a half-life of 20.2 h. In addition, where the note is “Plasma”, the AUC(0-inf) worked out at 219000 ng·h/mL, the AUC(0-t) is 92000 ng·h/mL, the peak level (Cmax) was 5380 ng/mL and the Tmax came to 6 h. This molecule gave a half-life (Plasma) of 26.8 h.

By AUC(0-inf) is commonly meant the area under the concentration-time curve extrapolated to infinity. One may read the AUC(0-t) as the area under the concentration-time curve up to a stated or last time point. By Cmax is commonly meant the peak of the concentration-time curve. A word on the Tmax: it is the time from dosing to the highest level. The term half-life denotes the time in which the quantity being followed falls by half.
